Measurements from patent US20110034373A1, “USE OF AN FGF-21 COMPOUND AND A GLP-1 COMPOUND FOR THE TREATMENT OF OBESITY” (ELI LILLY AND COMPANY, priority 2007, published 2011).

B1: FGF-21: FGF-21 compound of Table 1: human FGF-21, printed as 'human FGF-2 (SEQ ID NO: 1)' (protein, listed as Homo sapiens)
chain: MDSDETGFEHSGLWVSVLAGLLGACQAHPIPDSSPLLQFGGQVRQRYLYTDDAQQTEAHLEIREDGTVGGAADQSPESLLQLKALKPGVIQILGVKTSRFLCQRPDGALYGSLHFDPEACSFRELLLEDGYNVYQSEAHGLPLHLPGNKSPHRDPAPRGPARFLPLPGLPPALPEPPGILAPQPPDVGSSDPLSMVGPSQGRSPSYAS

Tested on: Diet-induced obese (DIO) male C57/B16 mice
Test: Effect of combination treatment with GLP-1 and FGF-21 on body weight in diet-induced obese mice
Assay type: in vivo
Settings: GLP-1 compound 3 nmol/kg/day continuous s.c. infusion (alzet pump), n=8
Method: Diet-induced obese (DIO) male C57/B16 mice (Harlan: Va.) maintained on a calorie rich diet (TD95217, Teklad, Madison, Wis.) since weaning are used, DIO is established by ad libitum feeding for at least 7 weeks of a diet consisting of 40% fat, 39% carbohydrate, and 21% protein caloric content (TD95217). Animals are individually housed in a temperature-controlled (24° C.) facility with 12 hour light/dark cycle (lights on 2200) and free access to food (TD95217) and water. After a minimum of 2 weeks acclimation to the facility, the mice are randomized according to their body weight, so each experimental group of animals would have similar body weight.
Body composition of DIO male C57/B16 mice is determined by using QNMR analysis 1 day prior to initiation of treatment. Combination treatment is administered with two delivery methods. A FGF-21 compound (1 mg/kg) is subcutaneously injected once a day and a GLP-1 compound (3 nmol/kg/day) is delivered by continuous subcutaneous infusion with alzet pump. The experimental groups are as follow: One group (“Vehicle”) of mice (n=8) receives PBS (11.4 μL/day) and a daily subcutaneous injection of 0.05 mL/10 g of PBS. Another group (“FGF-21”) of mice (n=8) receives 11.4 μL/day of PBS using the alzet pump and a daily subcutaneous injection of 1 mg/kg of FGF-21. The “GLP-1” group of mice receives 3 nmol/kg/day of a GLP-1 compound through an alzet pump and a daily subcutaneous injection of 0.05 mL/10 g of PBS. The “GLP-1+FGF-21” group of mice receives 3 nmol/kg/day of a GLP-1 compound through an alzet pump and a daily subcutaneous injection of 1 mg/kg of a FGF-21 compound. Injections occur prior to the onset of the dark photoperiod. Starting weight values are measured after implantation of alzet pumps on Day 1. Body weights are recorded in conjunction with daily dosing. Average weight changes compared to starting weights of a particular treatment group, including vehicle, are determined. Average daily weight changes are normalized to average of daily weight change of Vehicle group and are reported in Table 1 (i.e., (Average weight change of Treatment group)−(Average weight change of Vehicle group)). For all treatment groups n=8.
Data in Table 1 represent results where the FGF-21 compound is human FGF-2 (SEQ ID NO: 1) and where the GLP-1 compound is Val^8-Glu^22-Ile^33-Pro^37-Ser^38-Ser^39-Gly^40-Ala^41-Pro^42-Pro^43-Pro^44-Ser^45-GLP-1 (SEQ ID NO: 19).

[1] = Day 1 (starting weight), FGF-21 compound 1 mg/kg s.c. once a day
[2] = Day 5, FGF-21 compound 1 mg/kg s.c. once a day
[3] = Day 10, FGF-21 compound 1 mg/kg s.c. once a day
[4] = Day 15, FGF-21 compound 1 mg/kg s.c. once a day

Molecule | Average Weight Change Normalized to Vehicle Treated Mice [1] | Average Weight Change Normalized to Vehicle Treated Mice [2] | Average Weight Change Normalized to Vehicle Treated Mice [3] | Average Weight Change Normalized to Vehicle Treated Mice [4]
Val^8-Glu^22-Ile^33-Pro^37-Ser^38-Ser^39-Gly^40-Ala^41-Pro^42-Pro^43-Pro^44-Ser^45-GLP-1 (HVEGTFTSDVSSYLEEQAAKEFIAWLIKGGPSSGAPPPS) | 0 g | -1.01 g | -1.99 g | -2.50 g
B1 | 0 g | -0.45 g | -1.94 g | -2.85 g
